Results: the supplement of paper PMC13207355
Counter-ions that a name gives are not always drawn.

Tests used:
Details in all cases: exposure time: 72 h
E13 [1] = patient-derived glioblastoma stem cells of classical subtype; assay: surviving fraction (nuclei count normalised to DMSO); higher = more cells surviving (less toxic)
E21 [2] = patient-derived glioblastoma stem cells of mesenchymal subtype; assay: as above
E28 [3] = patient-derived glioblastoma stem cells of classical subtype; assay: as above
E31 [4] = patient-derived glioblastoma stem cells of proneural subtype; assay: as above
E34 [5] = patient-derived glioblastoma stem cells of proneural subtype; assay: as above
E57 [6] = patient-derived glioblastoma stem cells of mesenchymal subtype; assay: as above
FT3469 [7] = normal neural stem cell line; assay: as above
E13 [8] = assay: phenotypic distance (Euclidean, principal components) from DMSO controls (arbitrary units); higher = stronger morphological change
E21 [9] = assay: as above
E28 [10] = assay: as above
E31 [11] = assay: as above
E34 [12] = assay: as above
E57 [13] = assay: as above
FT3469 [14] = assay: as above
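Throughout, for phenotypic distance (Euclidean, principal components) from DMSO controls: cell Painting imaging in 384-well plates, CellProfiler features reduced to at least 20 principal components, Euclidean distance versus same-plate DMSO vehicle wells (0.1% v/v), median over six images per well.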
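Throughout, for surviving fraction (nuclei count normalised to DMSO): nuclei counted by high-content imaging of Hoechst-stained cells in laminin-coated 384-well plates, relative to 0.1% DMSO vehicle wells, with staurosporine as cell-death control.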

C[C@@H]1CN([C@H]2CC[C@](C#N)(c3ccc(F)cc3)CC2)CC[C@]1(C(=O)O)c1ccccc1 [Levocabastine hydrochloride]
Details	phenotypic distance	surviving fraction
E13 [1], 4.1 nM	–	0.997
E13 [1], 12.3 nM	–	1.04
E13 [1], 37 nM	–	1.06
E13 [1], 111.1 nM	–	0.914
E13 [1], 333.3 nM	–	1.05
E13 [1], 1000 nM	–	0.985
E13 [1], 3000 nM	–	0.918
E13 [8], 4.1 nM	0.774	–
E13 [8], 12.3 nM	0.599	–
E13 [8], 37 nM	0.564	–
E13 [8], 111.1 nM	0.596	–
E13 [8], 333.3 nM	0.491	–
E13 [8], 1000 nM	0.354	–
E13 [8], 3000 nM	0.712	–
E21 [2], 4.1 nM	–	0.99
E21 [2], 12.3 nM	–	1.15
E21 [2], 37 nM	–	0.977
E21 [2], 111.1 nM	–	1.12
E21 [2], 333.3 nM	–	1.11
E21 [2], 1000 nM	–	1.12
E21 [2], 3000 nM	–	0.854
E21 [9], 4.1 nM	0.745	–
E21 [9], 12.3 nM	0.621	–
E21 [9], 37 nM	0.743	–
E21 [9], 111.1 nM	0.866	–
E21 [9], 333.3 nM	0.582	–
E21 [9], 1000 nM	0.688	–
E21 [9], 3000 nM	3.41	–
E28 [3], 4.1 nM	–	1.07
E28 [3], 12.3 nM	–	1.17
E28 [3], 37 nM	–	1.13
E28 [3], 111.1 nM	–	1.1
E28 [3], 333.3 nM	–	1.1
E28 [3], 1000 nM	–	1.12
E28 [3], 3000 nM	–	0.949
E28 [10], 4.1 nM	0.787	–
E28 [10], 12.3 nM	0.763	–
E28 [10], 37 nM	0.863	–
E28 [10], 111.1 nM	0.374	–
E28 [10], 333.3 nM	0.741	–
E28 [10], 1000 nM	0.713	–
E28 [10], 3000 nM	1.04	–
E31 [4], 4.1 nM	–	1.11
E31 [4], 12.3 nM	–	1.06
E31 [4], 37 nM	–	1.13
E31 [4], 111.1 nM	–	1.01
E31 [4], 333.3 nM	–	1.17
E31 [4], 1000 nM	–	1.06
E31 [4], 3000 nM	–	1.06
E31 [11], 4.1 nM	0.412	–
E31 [11], 12.3 nM	0.744	–
E31 [11], 37 nM	0.868	–
E31 [11], 111.1 nM	0.539	–
E31 [11], 333.3 nM	0.794	–
E31 [11], 1000 nM	0.681	–
E31 [11], 3000 nM	0.779	–
E34 [5], 4.1 nM	–	1.01
E34 [5], 12.3 nM	–	0.8
E34 [5], 37 nM	–	1.25
E34 [5], 111.1 nM	–	0.952
E34 [5], 333.3 nM	–	0.972
E34 [5], 1000 nM	–	0.909
E34 [5], 3000 nM	–	1.22
E34 [12], 4.1 nM	0.554	–
E34 [12], 12.3 nM	1.09	–
E34 [12], 37 nM	0.93	–
E34 [12], 111.1 nM	0.824	–
E34 [12], 333.3 nM	0.742	–
E34 [12], 1000 nM	0.79	–
E34 [12], 3000 nM	0.624	–
E57 [6], 4.1 nM	–	1.09
E57 [6], 12.3 nM	–	1.02
E57 [6], 37 nM	–	0.987
E57 [6], 111.1 nM	–	1.11
E57 [6], 333.3 nM	–	1.08
E57 [6], 1000 nM	–	0.975
E57 [6], 3000 nM	–	0.994
E57 [13], 4.1 nM	1.04	–
E57 [13], 12.3 nM	0.495	–
E57 [13], 37 nM	0.313	–
E57 [13], 111.1 nM	0.928	–
E57 [13], 333.3 nM	4.21	–
E57 [13], 1000 nM	0.708	–
E57 [13], 3000 nM	0.745	–
FT3469 [7], 4.1 nM	–	1.08
FT3469 [7], 12.3 nM	–	1.15
FT3469 [7], 37 nM	–	1.05
FT3469 [7], 111.1 nM	–	1.11
FT3469 [7], 333.3 nM	–	1.04
FT3469 [7], 1000 nM	–	1.07
FT3469 [7], 3000 nM	–	0.784
FT3469 [14], 4.1 nM	0.782	–
FT3469 [14], 12.3 nM	0.792	–
FT3469 [14], 37 nM	0.998	–
FT3469 [14], 111.1 nM	0.719	–
FT3469 [14], 333.3 nM	3.75	–
FT3469 [14], 1000 nM	0.437	–
FT3469 [14], 3000 nM	3.86	–
